How the values were obtained:
[1] = FIH Study Parts A and B combined: adverse events; assay type: in vivo, human
Excerpt: Preliminary safety data from Part B (monotherapy dose expansion) is consistent with what has been observed in Part A (monotherapy dose escalation).

[2] = test system: ER+/HER2− locally advanced or metastatic breast cancer; test: FIH Study Part A: clinical activity (CBR, ORR); assay type: in vivo, human
Excerpt: Based on a 6 Jun. 2023 data cut-off, evidence of preliminary clinical activity was observed, as assessed by CBR and ORR, in the monotherapy Part A dose escalation cohort of the FIH Study.
Per protocol, the CBR evaluable analysis set included all treated patients who were enrolled at least 24 weeks prior to the data cut-off of analysis. CBR was defined as a confirmed CR or PR per RECIST v1.1 or SD with a minimum duration of 24 weeks.
Per protocol, the response-evaluable analysis set included all treated patients who had measurable disease at baseline and ORR was based on confirmed responses per RECIST v1.1.

ER = ER expression in paired tumor biopsies (FIH Part A); assay type: in vivo, human; conditions: 14 paired biopsies, doses up to 500 mg QD, WT or mutant ER
[3] = Clinical Pharmacology Study PPI (esomeprazole) cohort: single-dose PK; assay type: in vivo, human; conditions: 200 mg
Excerpt: Study Design: The Clinical Pharmacology Study consists of 3 independent cohorts: 1) an open-label, randomized, 2-period, crossover Fed/Fasted cohort to determine food effects; 2) an open-label, 2-period, fixed sequence PPI cohort to evaluate interactions with esomeprazole; and 3) an open-label, randomized, 2 period, crossover rBA cohort to evaluate 2 tablet formulations.

T47D cells = test: Live-cell imaging proliferation, T47D; assay type: cell-based; conditions: Homo sapiens, 144 h, up to 6 days
Excerpt: Full growth of the cells over this time period is shown by extent of cell confluence with dimethyl sulfoxide (DMSO).

CK1α = CK1α (Homo sapiens, UniProt P48729); test: Cereblon neomorphic substrate degradation, CK1α; assay type: cell-based; conditions: in vitro
Sequence of CK1α (Q96SW2 whole entry partner): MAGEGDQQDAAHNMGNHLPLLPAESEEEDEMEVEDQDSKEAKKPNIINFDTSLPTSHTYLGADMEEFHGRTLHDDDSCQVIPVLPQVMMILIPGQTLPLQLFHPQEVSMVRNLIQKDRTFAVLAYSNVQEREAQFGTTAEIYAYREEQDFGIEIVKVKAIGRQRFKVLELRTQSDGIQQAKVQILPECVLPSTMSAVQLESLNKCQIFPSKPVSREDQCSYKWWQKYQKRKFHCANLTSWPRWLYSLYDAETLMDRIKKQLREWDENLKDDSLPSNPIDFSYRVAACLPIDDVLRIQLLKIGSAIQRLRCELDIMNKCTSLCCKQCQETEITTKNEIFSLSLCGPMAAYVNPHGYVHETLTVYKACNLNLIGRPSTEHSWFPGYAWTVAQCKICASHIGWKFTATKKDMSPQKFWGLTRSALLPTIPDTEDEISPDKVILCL
Sequence of CK1α (Q16531 whole entry partner): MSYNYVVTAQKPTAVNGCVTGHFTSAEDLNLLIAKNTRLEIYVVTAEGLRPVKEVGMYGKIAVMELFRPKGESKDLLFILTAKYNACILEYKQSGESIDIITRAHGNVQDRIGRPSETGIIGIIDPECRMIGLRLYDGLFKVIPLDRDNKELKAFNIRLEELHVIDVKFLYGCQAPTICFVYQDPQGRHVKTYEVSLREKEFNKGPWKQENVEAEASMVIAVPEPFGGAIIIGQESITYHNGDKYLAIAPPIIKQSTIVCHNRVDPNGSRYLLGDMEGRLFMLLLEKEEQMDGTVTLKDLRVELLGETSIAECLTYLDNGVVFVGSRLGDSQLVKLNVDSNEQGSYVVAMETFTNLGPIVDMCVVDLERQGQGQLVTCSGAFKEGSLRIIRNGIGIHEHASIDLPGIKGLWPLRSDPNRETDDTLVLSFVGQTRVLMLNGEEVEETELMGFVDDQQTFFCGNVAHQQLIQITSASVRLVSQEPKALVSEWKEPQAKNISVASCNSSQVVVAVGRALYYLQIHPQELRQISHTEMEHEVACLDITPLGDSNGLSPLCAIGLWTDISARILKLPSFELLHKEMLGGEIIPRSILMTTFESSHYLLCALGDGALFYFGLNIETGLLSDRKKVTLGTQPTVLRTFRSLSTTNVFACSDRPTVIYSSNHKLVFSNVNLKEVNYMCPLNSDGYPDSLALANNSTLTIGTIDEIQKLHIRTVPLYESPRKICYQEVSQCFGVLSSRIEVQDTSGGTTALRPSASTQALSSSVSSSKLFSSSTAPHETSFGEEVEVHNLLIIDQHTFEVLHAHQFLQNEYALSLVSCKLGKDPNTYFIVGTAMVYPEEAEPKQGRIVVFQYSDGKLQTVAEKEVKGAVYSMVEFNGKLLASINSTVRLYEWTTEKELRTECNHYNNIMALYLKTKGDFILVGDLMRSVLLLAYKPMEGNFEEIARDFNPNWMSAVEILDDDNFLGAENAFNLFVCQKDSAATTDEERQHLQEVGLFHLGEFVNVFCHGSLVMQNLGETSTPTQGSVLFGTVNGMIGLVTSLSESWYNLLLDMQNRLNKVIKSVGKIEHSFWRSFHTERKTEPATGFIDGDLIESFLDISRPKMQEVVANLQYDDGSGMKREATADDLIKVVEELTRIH
Sequence of CK1α (P48729 whole entry): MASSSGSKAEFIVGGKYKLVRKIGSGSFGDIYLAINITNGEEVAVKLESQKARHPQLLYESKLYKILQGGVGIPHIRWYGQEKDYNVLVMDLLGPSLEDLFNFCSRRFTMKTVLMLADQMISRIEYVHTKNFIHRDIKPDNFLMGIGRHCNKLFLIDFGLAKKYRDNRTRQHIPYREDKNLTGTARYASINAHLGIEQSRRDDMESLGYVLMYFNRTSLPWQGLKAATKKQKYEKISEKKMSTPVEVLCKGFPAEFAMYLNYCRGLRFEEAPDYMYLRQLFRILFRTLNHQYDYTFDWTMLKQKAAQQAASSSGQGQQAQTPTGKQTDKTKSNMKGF
Excerpt: These drugs bind to cereblon and promote the degradation of novel (neomorphic) substrates.

[4] = Biopharmaceutics Classification System; assay type: physicochemical; conditions: low solubility/low permeability
[5] = rat, in vivo

O=C1CC[C@H](N2Cc3cc(N4CCN(CC5CCN(c6ccc([C@@H]7c8ccc(O)cc8CC[C@@H]7c7ccccc7)cc6)CC5)CC4)ccc3C2=O)C(=O)N1 [Compound A, (S)-3-(5-(4-((1-(4-((1R,2S)-6-hydroxy-2-phenyl-1,2,3,4-tetrahydronaphthalen-1-yl)phenyl)piperidin-4-yl)methyl)piperazin-1-yl)-1-oxoisoindolin-2-yl)piperidine-2,6-dione]
patients with TEAEs ([1]; 143 of 154, as of 6 Jun 2023): 92.9%
Any treatment-emergent AE, Any Grade ([1]; Part A + B, N=154): 143 (92.9) n (%)
Any treatment-emergent AE, Grade 3+ ([1]; Part A + B, N=154): 40 (26.0) n (%)
Any treatment-related AE, Any Grade ([1]; Part A + B, N=154): 114 (74.0) n (%)
Any treatment-related AE, Grade 3+ ([1]; Part A + B, N=154): 12 (7.8) n (%)
TEAE Anemia, Any Grade ([1]; Part A + B, N=154): 16 (10.4) n (%)
TEAE Anemia, Grade 3+ ([1]; Part A + B, N=154): 2 (1.3) n (%)
TEAE Arthralgia, Any Grade ([1]; Part A + B, N=154): 34 (22.1) n (%)
TEAE Arthralgia, Grade 3+ ([1]; Part A + B, N=154): 2 (1.3) n (%)
TEAE Aspartate aminotransferase increased, Any Grade ([1]; Part A + B, N=154): 21 (13.6) n (%)
TEAE Aspartate aminotransferase increased, Grade 3+ ([1]; Part A + B, N=154): 3 (1.9) n (%)
TEAE Back pain, Any Grade ([1]; Part A + B, N=154): 21 (13.6) n (%)
TEAE Back pain, Grade 3+ ([1]; Part A + B, N=154): 2 (1.3) n (%)
TEAE Constipation, Any Grade ([1]; Part A + B, N=154): 41 (26.6) n (%)
TEAE Constipation, Grade 3+ ([1]; Part A + B, N=154): 0 n (%)
TEAE Decreased appetite, Any Grade ([1]; Part A + B, N=154): 24 (15.6) n (%)
TEAE Decreased appetite, Grade 3+ ([1]; Part A + B, N=154): 1 (0.6) n (%)
TEAE Diarrhea, Any Grade ([1]; Part A + B, N=154): 19 (12.3) n (%)
TEAE Diarrhea, Grade 3+ ([1]; Part A + B, N=154): 0 n (%)
TEAE Fatigue, Any Grade ([1]; Part A + B, N=154): 62 (40.3) n (%)
TEAE Fatigue, Grade 3+ ([1]; Part A + B, N=154): 2 (1.3) n (%)
TEAE Headache, Any Grade ([1]; Part A + B, N=154): 25 (16.2) n (%)
TEAE Headache, Grade 3+ ([1]; Part A + B, N=154): 1 (0.6) n (%)
TEAE Hot flush, Any Grade ([1]; Part A + B, N=154): 24 (15.6) n (%)
TEAE Hot flush, Grade 3+ ([1]; Part A + B, N=154): 0 n (%)
TEAE Hyperglycemia, Any Grade ([1]; Part A + B, N=154): 16 (10.4) n (%)
TEAE Hyperglycemia, Grade 3+ ([1]; Part A + B, N=154): 0 n (%)
TEAE Nausea, Any Grade ([1]; Part A + B, N=154): 46 (29.9) n (%)
TEAE Nausea, Grade 3+ ([1]; Part A + B, N=154): 1 (0.6) n (%)
TEAE Pain in extremity, Any Grade ([1]; Part A + B, N=154): 17 (11.0) n (%)
TEAE Pain in extremity, Grade 3+ ([1]; Part A + B, N=154): 0 n (%)
TEAE Vomiting, Any Grade ([1]; Part A + B, N=154): 20 (13.0) n (%)
TEAE Vomiting, Grade 3+ ([1]; Part A + B, N=154): 0 n (%)
TRAE Arthralgia, Any Grade ([1]; Part A + B, N=154): 22 (14.3) n (%)
TRAE Arthralgia, Grade 3+ ([1]; Part A + B, N=154): 0 n (%)
TRAE Constipation, Any Grade ([1]; Part A + B, N=154): 16 (10.4) n (%)
TRAE Constipation, Grade 3+ ([1]; Part A + B, N=154): 0 n (%)
TRAE Fatigue, Any Grade ([1]; Part A + B, N=154): 48 (31.2) n (%)
TRAE Fatigue, Grade 3+ ([1]; Part A + B, N=154): 1 (0.6) n (%)
TRAE Hot flush, Any Grade ([1]; Part A + B, N=154): 20 (13.0) n (%)
TRAE Hot flush, Grade 3+ ([1]; Part A + B, N=154): 0 n (%)
TRAE Nausea, Any Grade ([1]; Part A + B, N=154): 36 (23.4) n (%)
TRAE Nausea, Grade 3+ ([1]; Part A + B, N=154): 1 (0.6) n (%)
TEAE Arthralgia ([1]; Parts A and B, N=154): 22.1%
TEAE Aspartate aminotransferase increased ([1]; Parts A and B, N=154): 13.6%
TEAE Back pain ([1]; Parts A and B, N=154): 13.6%
TEAE Constipation ([1]; Parts A and B, N=154): 26.6%
TEAE Decreased appetite ([1]; Parts A and B, N=154): 15.6%
TEAE Diarrhea ([1]; Parts A and B, N=154): 12.3%
TEAE Fatigue ([1]; Parts A and B, N=154): 40.3%
TEAE Headache ([1]; Parts A and B, N=154): 16.2%
TEAE Nausea ([1]; Parts A and B, N=154): 29.9%
TEAE Pain in extremity ([1]; Parts A and B, N=154): 11.0%
TEAE Vomiting ([1]; Parts A and B, N=154): 13.0%
TEAE anemia ([1]; Parts A and B, N=154): 10.4%
TEAE hot flush ([1]; Parts A and B, N=154): 15.6%
TEAE hyperglycaemia ([1]; Parts A and B, N=154): 10.4%
TRAE Arthralgia ([1]; Parts A and B, N=154): 14.3%
TRAE Constipation ([1]; Parts A and B, N=154): 10.4%
TRAE Fatigue ([1]; Parts A and B, N=154): 31.2%
TRAE Nausea ([1]; Parts A and B, N=154): 23.4%
TRAE hot flush ([1]; Parts A and B, N=154): 13.0%
ORR ([2]; 7 of 61 response-evaluable, confirmed PR, 95% CI 4.7%, 22.2%): 11.5%
CBR ([2]; 30 of 83 evaluable patients, 95% CI 25.9%, 47.4%, cut-off 6 Jun 2023): 36.1%
CBR ([2]; Phase 1, ESR1-mutant tumors): 50%
CBR ([2]; Phase 1, all patients): 40%
ER degradation, median decrease (ER): 67%
AUC with PPI vs without PPI [3]: similar
decrease of median Cmax by PPI [3]: about 18%
decrease of AUCinf by multiple doses of esomeprazole 40 mg ([3]; moderate-fat meal): 11%
decrease of Cmax by multiple doses of esomeprazole 40 mg ([3]; moderate-fat meal): 17.1%
GI50 (T47D cells): 1.7 nM
degradation of CK1α (CK1α): did not degrade
Biopharmaceutics Classification System class [4]: Class IV
developmental NOAEL [5]: could not be established

Reference: US20260069588A1, “VEPDEGESTRANT FOR USE IN TREATING CANCER” (Arvinas Operation, Inc., priority 2022, published 2026)
